Assay results published in the supplement of paper PMC10307832.

Assays:
Assay in all cases: relative viability (nuclei count vs DMSO), 5 days (fraction); higher = more cells survive
Sorafenib + Tozasertib = compound: CNC(=O)c1cc(Oc2ccc(NC(=O)Nc3ccc(Cl)c(C(F)(F)F)c3)cc2)ccn1 [Sorafenib] + Cc1cc(Nc2cc(N3CCN(C)CC3)nc(Sc3ccc(NC(=O)C4CC4)cc3)n2)n[nH]1 [Tozasertib] (partner 0.1 µM)
Outline: (§1)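 The day after seeding in 1536-well plates, lung cancer cell lines were treated by pin tool with a single drug, or with a fixed anchor-drug dose together with five library-drug doses (not always all listed) in √10 steps. After 5 days, a combined fix-and-stain solution (final 0.05% Triton X-100, 1% formaldehyde, 1 ug/ml Hoechst) was added. Nuclei counted on 4× images gave relative viability as treated counts over vehicle counts, reported as the median of duplicate plates.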

Sorafenib + Dasatinib = compound: CNC(=O)c1cc(Oc2ccc(NC(=O)Nc3ccc(Cl)c(C(F)(F)F)c3)cc2)ccn1 [Sorafenib] + Cc1nc(Nc2ncc(C(=O)Nc3c(C)cccc3Cl)s2)cc(N2CCN(CCO)CC2)n1 [Dasatinib] (partner 0.075 µM)
Outline: as §1

Sorafenib + Crizotinib = compound: CNC(=O)c1cc(Oc2ccc(NC(=O)Nc3ccc(Cl)c(C(F)(F)F)c3)cc2)ccn1 [Sorafenib] + C[C@@H](Oc1cc(-c2cnn(C3CCNCC3)c2)cnc1N)c1c(Cl)ccc(F)c1Cl [Crizotinib] (partner 1 µM)
Outline: as §1

Sorafenib + OSI-027 = compound: CNC(=O)c1cc(Oc2ccc(NC(=O)Nc3ccc(Cl)c(C(F)(F)F)c3)cc2)ccn1 [Sorafenib] + COc1cccc2cc(-c3nc([C@H]4CC[C@H](C(=O)O)CC4)n4ncnc(N)c34)[nH]c12 [OSI-027] (partner 0.5 µM)
Outline: as §1

Sorafenib + Linsitinib = compound: CNC(=O)c1cc(Oc2ccc(NC(=O)Nc3ccc(Cl)c(C(F)(F)F)c3)cc2)ccn1 [Sorafenib] + C[C@]1(O)C[C@@H](c2nc(-c3ccc4ccc(-c5ccccc5)nc4c3)c3c(N)nccn32)C1 [Linsitinib] (partner 1 µM)
Outline: as §1

Cell Line	relative viability (Sorafenib + Tozasertib; first compound 0.08 µM)	relative viability (Sorafenib + Tozasertib; first compound 0.253 µM)	relative viability (Sorafenib + Tozasertib; first compound 2.53 µM)	relative viability (Sorafenib + Tozasertib; first compound 8 µM)	relative viability (Sorafenib + Dasatinib; first compound 0.08 µM)	relative viability (Sorafenib + Dasatinib; first compound 0.253 µM)	relative viability (Sorafenib + Dasatinib; first compound 2.53 µM)	relative viability (Sorafenib + Dasatinib; first compound 8 µM)	relative viability (Sorafenib + Crizotinib; first compound 0.08 µM)	relative viability (Sorafenib + Crizotinib; first compound 0.253 µM)	relative viability (Sorafenib + Crizotinib; first compound 2.53 µM)	relative viability (Sorafenib + Crizotinib; first compound 8 µM)	relative viability (Sorafenib + OSI-027; first compound 0.08 µM)	relative viability (Sorafenib + OSI-027; first compound 0.253 µM)	relative viability (Sorafenib + OSI-027; first compound 2.53 µM)	relative viability (Sorafenib + OSI-027; first compound 8 µM)	relative viability (Sorafenib + Linsitinib; first compound 0.08 µM)	relative viability (Sorafenib + Linsitinib; first compound 0.253 µM)	relative viability (Sorafenib + Linsitinib; first compound 2.53 µM)	relative viability (Sorafenib + Linsitinib; first compound 8 µM)
SK-MES-1	0.823	0.833	0.714	0.439	0.434	0.276	0.41	0.273	1.06	0.94	0.92	0.865	0.604	0.548	0.5	0.454	1.1	1.08	1	1.03
UMC-11	0.209	0.195	0.202	0.184	0.509	0.396	0.357	0.205	0.558	0.578	0.541	0.204	0.46	0.386	0.454	0.266	0.991	0.989	0.945	0.687
LC-2-ad	0.405	0.478	0.478	0.462	0.721	0.376	0.427	0.33	0.496	0.447	0.511	0.421	0.889		0.9	0.573	0.935	0.798	0.673	0.659
LU99A	0.305	0.278	0.247	0.26	0.512	0.504	0.608	0.351	0.541	0.547	0.6	0.543	0.299	0.27	0.299	0.272	0.533	0.488	0.507	0.496
NCI-H2023	0.282	0.278	0.229	0.142	0.681	0.485	0.601	0.275	0.66		0.713	0.357	0.51	0.338	0.387	0.19	0.733	0.735	0.669	0.497
NCI-H2342	0.568	0.488	0.377	0.366	0.32	0.27	0.29	0.28					0.676	0.522	0.542	0.482				
NCI-H1944	0.281	0.292	0.266	0.206	0.213	0.229	0.245	0.206	1.12	1	1.08	0.912	0.4	0.381	0.436	0.334	1.21	1.24	1.3	1.09
NCI-H1651	0.833	0.643	0.698	0.445	0.456	0.35	0.612	0.13	0.863	0.866	0.845	0.877	0.777	0.687	0.655	0.622	1.14	0.885	0.91	0.396
